Among the data in BindingDB's records for doi:10.1016/j.bmc.2006.03.042 (F. Hoffmann-La Roche, 2006) are Ki values, retold here.

Common to all, as to assay: Serine Protease Inhibition Assay
For assay [1], the target named is T1, Coagulation factor VII (Homo sapiens, UniProt P08709).
T1 sequence (P08709 whole entry): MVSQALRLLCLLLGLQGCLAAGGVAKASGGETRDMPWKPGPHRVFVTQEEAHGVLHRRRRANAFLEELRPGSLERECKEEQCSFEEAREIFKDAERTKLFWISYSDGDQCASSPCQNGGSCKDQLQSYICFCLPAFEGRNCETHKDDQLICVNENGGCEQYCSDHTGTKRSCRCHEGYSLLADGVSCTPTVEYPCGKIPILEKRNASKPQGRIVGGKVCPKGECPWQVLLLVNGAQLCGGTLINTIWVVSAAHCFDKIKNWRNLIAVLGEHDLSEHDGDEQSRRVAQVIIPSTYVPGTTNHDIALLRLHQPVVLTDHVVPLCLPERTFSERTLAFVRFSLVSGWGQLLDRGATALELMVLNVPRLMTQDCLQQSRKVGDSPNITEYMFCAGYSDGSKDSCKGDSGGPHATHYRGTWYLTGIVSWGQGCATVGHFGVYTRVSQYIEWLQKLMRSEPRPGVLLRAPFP
Particulars: pH 7.8; 22 °C. As for the experimental part: (§1) The enzyme reactions were initiated by the addition of substrate, and the color developed from the release of p-nitroanilide from each chromogenic substrate was monitored continuously for 5 min at 405 nm on a microtiter plate reader. […] The apparent Ki values were then calculated according to the Cheng-Prusoff equation: Ki = IC50/1 + [S]/Km.

For assay [2], the target named is Coagulation factor X (Homo sapiens, UniProt P00742). As for the experimental part:
as §1

Assay [3] has as its target Prothrombin (Homo sapiens, UniProt P00734). The settings on record: pH 7.8; 22 °C. As for the experimental part:
as §1

For assay [4], the target named is T2, Serine protease 1 (Bos taurus, UniProt P00760).
T2 sequence (P00760 whole entry): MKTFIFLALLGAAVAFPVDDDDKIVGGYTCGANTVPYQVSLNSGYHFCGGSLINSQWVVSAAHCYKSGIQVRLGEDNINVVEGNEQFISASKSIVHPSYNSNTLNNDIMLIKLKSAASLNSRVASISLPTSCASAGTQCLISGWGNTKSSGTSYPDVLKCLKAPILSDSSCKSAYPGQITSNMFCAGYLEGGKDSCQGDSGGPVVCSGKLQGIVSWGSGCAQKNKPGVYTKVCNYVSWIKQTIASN
As for the experimental part: as §1

pKi: −log10 of the molar value. Bounds are passed on as bounds.

What is called pKi is the Ki on a negative log10 scale, so that one unit is a factor of ten.

Coagulation factor X, sequence (P00742 41-179 limits assumed): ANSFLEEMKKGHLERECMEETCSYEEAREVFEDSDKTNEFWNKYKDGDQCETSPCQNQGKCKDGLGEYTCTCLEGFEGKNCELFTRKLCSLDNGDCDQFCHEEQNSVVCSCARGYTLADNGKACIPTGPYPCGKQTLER
Coagulation factor X, sequence (P00742 235-488 limits assumed): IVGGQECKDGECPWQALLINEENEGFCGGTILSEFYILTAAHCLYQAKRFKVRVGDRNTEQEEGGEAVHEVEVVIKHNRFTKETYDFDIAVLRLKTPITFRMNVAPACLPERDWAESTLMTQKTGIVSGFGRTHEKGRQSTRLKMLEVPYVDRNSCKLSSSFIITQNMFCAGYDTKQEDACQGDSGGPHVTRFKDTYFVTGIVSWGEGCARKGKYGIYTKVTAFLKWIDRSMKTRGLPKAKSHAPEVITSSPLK

For the compound `CCOc1cc(OCC)c(F)c(C(Nc2ccc(C(=N)N)cc2)C(=O)O)c1` (racemic) [2-[(4-carbamimidoylphenyl)amino]-2-(3,5-diethoxy-2-fluorophenyl)acetic acid], the negative-log Ki (pKi) in assay [1] is 6.70; in assay [2] it was 5.52; in assay [3] it was 5.06; in assay [4], 5.17.

Take `CCOc1cc(OCC)cc(C(Nc2ccc(C(=N)N)cc2)C(=O)O)c1` (stereo not given) [2-[(4-carbamimidoylphenyl)amino]-2-(3,5-diethoxyphenyl)acetic acid]: the pKi in assay [3] was below 4.46.

For the compound `CCOc1cc(O[C@@H]2CCOC2)c(F)c([C@@H](Nc2ccc(C(=N)N)cc2)C(=O)O)c1` [2-[(4-carbamimidoylphenyl)amino]-2-[5-ethoxy-2-fluoro-3-(oxolan-3-yloxy)phenyl]acetic acid], the negative logarithm of the Ki (pKi) in assay [1] is 7.06; in assay [2], 5.92; in assay [3], 5.15; in assay [4], 5.51.

For the compound `COc1ccc(-c2ccc(C(=O)N[C@H](CO)C(C)(C)C)cc2C(=O)O)c(C(=O)Nc2ccc(C(=N)N)cc2)n1` [2-{2-[(4-carbamimidoylphenyl)carbamoyl]-6-methoxypyridin-3-yl}-5-{[(2S)-1-hydroxy-3,3-dimethylbutan-2-yl]carbamoyl}benzoic acid], the pKi in assay [1] is 8.00; in assay [2] it was 6.82; in assay [3] it was 5.37; in assay [4], 6.62.

Take `CCOc1cc(O[C@@H]2CCOC2)c(F)c([C@@H](Nc2ccc(C(=N)N)cc2)C(=O)O)c1` [(2R)-2-[(4-carbamimidoylphenyl)amino]-2-{5-ethoxy-2-fluoro-3-[(3R)-oxolan-3-yloxy]phenyl}acetic acid]: the negative-log Ki (pKi) in assay [1] is 7.09; in assay [2], 5.72; in assay [3], 5.35; in assay [4], 5.49.

As for `CCOc1cc(OC2CCOC2)cc(C(Nc2ccc(C(=N)N)cc2)C(=O)O)c1` (stereo not given) [(4-Carbamimidoyl-phenylamino)-[3-ethoxy-5-(tetra-hydrofuran-3-yloxy)-phenyl]-acetic acid], the pKi was 5.54 in assay [2], 4.97 in assay [3] and below 5.17 in assay [4].
